These results are taken from US4103011A, “Novel penicillin compounds and process for preparation thereof” (priority 1976, dated 1978).

The term ED50 denotes the midpoint of the dose-response relation. What is called LD50 is the dose expected to kill half of the subjects tested.

The nature of one data set: Plasma level in mice. In kind it is in vivo, male mice (ddY). The protocol: The contents of the vials (No. A) obtained in Example 17 were dissolved in deionized water to form solutions of compound 1 in a concentration of 100 mg/ml. The solutions were intramuscularly (im) administered to twenty four male mice (ddY) having an average body weight of 26 g at a dose of 25 mg/kg.
Blood was taken by cardiac puncture from four mice ech 0.25, 0.5, 1, 2, 3 and 4 hours after administration, and centrifuged individually to separate the plasma.
Drug levels were determined by the thin-layer cup-plate method using Escherichia coli Kp as an indicator organism. Plasma was appropriately (to more than 10 times) diluted with a 0.067 M phosphate buffer having a pH of 7.0. A standard calibration line was prepared in the same buffer.

The subject of data set [1] is Pseudomonas aeruginosa No. 12. The data set can be described thus: In vivo efficacy against systemic infection. Also on record: species or system male mice (ddY). To be noted: for ED50: NO.12, in Mus musculus. An outline of the steps: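 Male ddY mice (about 20 g) infected intraperitoneally with a Pseudomonas aeruginosa No. 12 suspension. Compounds in deionized water were given twice, about 5 minutes and 6 hours after infection. Effective dose calculated by the Behrens-Kaerber method.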

A short description of the next data set: in vivo. To be noted: mouse.
The test system of a further data set is Escherichia coli P-5101. The data set can be described thus: In vivo efficacy against systemic infection. Further details: species or system male mice (ddY). To be noted: P5101, in Mus musculus, 168 h, twice, about 5 minutes and 6 hours after infection, read-out: ED50 (median effective dose). An outline of the steps:
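Male ddY mice of about 20g were infected intraperitoneally with E. coli P-5101 suspended in tryptosoy broth. Compounds dissolved in deionized water were given twice, about 5 minutes and 6 hours after infection. Effective dose was calculated by the Behrens-Kaerber method.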

Counter-ions that a name gives are not always drawn. Like-named read-outs stand apart in the source and are kept apart here.

For `CC1(C)S[C@@H]2[C@H](NC(=O)[C@H](NC(=O)c3c[nH]c4nc(N5CCN(C=O)CC5)ncc4c3=O)c3ccc(O)cc3)C(=O)N2[C@H]1C(=O)O` [Compound 1, D-α-[5,8-Dihydro-2-(4-formyl-1-piperazinyl)-5-oxopyrido[2,3-d]pyrimidine-6-carboxamido]-p-hydroxybenzyl-penicillin sodium salt], the “plasma level (in words)” value in “Plasma level in mice” (after parenteral administration) is “much the same concentration as the MIC”. Also, the concentration at 0.25 h in “Plasma level in mice” (mouse, plasma, 25 mg/kg, im, single dose, 0.25 hour, read-out: Average plasma conc.) stood at 27400 ng/mL. Moreover, in the data set “Plasma level in mice” (mouse, plasma, 25 mg/kg, im, single dose, 0.5 hour, read-out: Average plasma conc.), the concentration at 0.5 h came out at 21500 ng/mL. Besides, the concentration at 1 h in the data set “Plasma level in mice” (mouse, plasma, 25 mg/kg, im, single dose, 1 hour, read-out: Average plasma conc.) was 15600 ng/mL. The concentration at 2 h in “Plasma level in mice” (mouse, plasma, 25 mg/kg, im, single dose, 2 hour, read-out: Average plasma conc.) turned out to be 9570 ng/mL. Further, the concentration at 3 h in “Plasma level in mice” (mouse, plasma, 25 mg/kg, im, single dose, 3 hour, read-out: Average plasma conc.) stood at 4010 ng/mL. Besides, the concentration at 4 h in “Plasma level in mice” (mouse, plasma, 25 mg/kg, im, single dose, 4 hour, read-out: Average plasma conc.) is 2740 ng/mL. The ED50 in data set [1] (iv, twice, about 5 minutes and 6 hours after infection, read-out: ED50 (median effective dose)) was 4.1 mg/kg; in data set [1] (parenteral administration, compounds 1 and 2 together, read-out: ED50) it was 2 to 6 mg/kg; in data set [1] (sc, twice, about 5 minutes and 6 hours after infection, read-out: ED50 (median effective dose)), 2.1 mg/kg; in the data set with Escherichia coli P-5101 (iv), 2.9 mg/kg; in the data set on Escherichia coli P-5101 (sc), 3.7 mg/kg. For the same molecule, the “antibacterial activity compared with compounds J and H (in words)” value in data set [1] (parenteral administration) is “far superior antibacterial activity”. In data set [1] (parenteral administration), the “antibacterial activity relative to compounds B and C (times as high)” value is on record as 3 to 25 times. Besides, the “antibacterial activity relative to compounds D and E (times as high)” value in data set [1] (parenteral administration) lay within 6 to 20 times. Also, the results for the LD50 at 168 h in the data set “in vivo” (iv) and in “in vivo” (sc) were 4520 mg/kg and greater than 6000 mg/kg, respectively. In addition, the selectivity ratio is 1100 in “in vivo” (iv) and greater than 3000 in the data set “in vivo” (sc).
